Holding throughout (type): cell-based
Data set [1] deals with human epithelial HeLa cells. The experiment in a line: HeLa cytotoxicity assay (CellTiter-Glo). The following applies: pCC50. As to the method: (§1) Compounds of the present invention were tested via high-throughput cellular assays utilizing detection of kynurenine via mass spectrometry and cytotoxicity as end-points. For the mass spectrometry and cytotoxicity assays, human epithelial HeLa cells (CCL-2; ATCC®, Manassas, Va.) were stimulated with human interferon-γ (IFN-γ) (Sigma-Aldrich Corporation, St. Louis, Mo.) to induce the expression of indoleamine 2, 3-dioxygenase (IDO1). Compounds with IDO1 inhibitory properties decreased the amount of kynurenine produced by the cells via the tryptophan catabolic pathway. Cellular toxicity due to the effect of compound treatment was measured using CellTiter-Glo® reagent (CTG) (Promega Corporation, Madison, Wis.), which is based on luminescent detection of ATP, an indicator of metabolically active cells.
(§2) In preparation for the assays, test compounds were serially diluted 3-fold in DMSO from a typical top concentration of 1 mM or 5 mM and plated at 0.5 μL in 384-well, polystyrene, clear bottom, tissue culture treated plates with lids (Greiner Bio-One, Kremsmünster, Austria) to generate 11-point dose response curves. Low control wells (0% kynurenine or 100% cytotoxicity) contained either 0.5 μL of DMSO in the presence of unstimulated (−IFN-γ) HeLa cells for the mass spectrometry assay or 0.5 μL of DMSO in the absence of cells for the cytotoxicity assay, and high control wells (100% kynurenine or 0% cytotoxicity) contained 0.5 μL of DMSO in the presence of stimulated (+IFN-γ) HeLa cells for both the mass spectrometry and cytotoxicity assays.
(§3) Frozen stocks of HeLa cells were washed and recovered in DMEM high glucose medium with HEPES (Thermo Fisher Scientific, Inc., Waltham, Mass.) supplemented with 10% v/v certified fetal bovine serum (FBS) (Thermo Fisher Scientific, Inc., Waltham, Mass.), and 1× penicillin-streptomycin antibiotic solution (Thermo Fisher Scientific, Inc., Waltham, Mass.). The cells were diluted to 100,000 cells/mL in the supplemented DMEM medium. 50 μL of either the cell suspension, for the mass spectrometry assay, or medium alone, for the cytotoxicity assay, were added to the low control wells, on the previously prepared 384-well compound plates, resulting in 5,000 cells/well or 0 cells/well respectively. IFN-γ was added to the remaining cell suspension at a final concentration of 10 nM, and 50 μL of the stimulated cells were added to all remaining wells on the 384-well compound plates. The plates, with lids, were then placed in a 37° C., 5% CO2 humidified incubator for 2 days.
(§4) Following incubation, the 384-well plates were removed from the incubator and allowed to equilibrate to room temperature for 30 minutes. For the cytotoxicity assay, CellTiter-Glo® was prepared according to the manufacturer's instructions, and 10 μL were added to each plate well. After a twenty minute incubation at room temperature, luminescence was read on an EnVision® Multilabel Reader (PerkinElmer Inc., Waltham, Mass.). For the mass spectrometry assay, 10 μL of supernatant from each well of the compound-treated plates were added to 40 μL of acetonitrile, containing 10 μM of an internal standard for normalization, in 384-well, polypropylene, V-bottom plates (Greiner Bio-One, Kremsmünster, Austria) to extract the organic analytes. Following centrifugation at 2000 rpm for 10 minutes, 10 μL from each well of the acetonitrile extraction plates were added to 90 μL of sterile, distilled H2O in 384-well, polypropylene, V-bottom plates for analysis of kynurenine and the internal standard on the RapidFire 300 (Agilent Technologies, Santa Clara, Calif.) and 4000 QTRAP MS (SCIEX, Framingham, Mass.). MS data were integrated using Agilent Technologies' RapidFire Integrator software, and data were normalized for analysis as a ratio of kynurenine to the internal standard. […]

Data set [2] addresses T1, indoleamine 2, 3-dioxygenase (IDO1) (Homo sapiens, UniProt P14902). The experiment in a line: IDO1 HeLa RapidFire MS assay (kynurenine detection by mass spectrometry). More on the design: to induce the expression of indoleamine 2, 3-dioxygenase (IDO1). The following applies: HeLa cells, pIC50, read-out: IDO1_HELA_PXC50 (converted). As to the method:
IDO1 HeLa RapidFire MS Assay
as §1, §2, §3, §4

For data set [3], the system named is human peripheral blood mononuclear cells (PBMC). The experiment in a line: PBMC cytotoxicity assay (CellTiter-Glo). The following applies: 2 days, pCC50. The gist of the method: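 Human PBMC (50,000 cells/well) stimulated with IFN-γ 100 ng/ml and LPS 50 ng/ml were exposed to 11-point 3-fold compound dilutions for 2 days at 37 °C, 5% CO2. Viability read by CellTiter-Glo ATP luminescence and normalized to no-cell and stimulated-DMSO controls. XC50 derived by four-parameter fit.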

Data set [4] addresses T1, indoleamine 2, 3-dioxygenase (IDO1). The experiment in a line: IDO1 PBMC RapidFire MS assay (kynurenine detection by mass spectrometry). To be noted: human PBMC stimulated with IFN-γ and LPS, 2 days, pIC50, read-out: PBMC PXC50 (converted). More on the design: to induce the expression of indoleamine 2, 3-dioxygenase (IDO1); host or cells: human PBMC stimulated with IFN-gamma and LPS. An outline of the steps:
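PBMCs (50,000 cells/well) stimulated with IFN-γ 100 ng/ml plus LPS 50 ng/ml, treated with 11-point 3-fold compound series for 2 days at 37° C. Supernatant kynurenine measured by RapidFire MS, normalised to internal standard; parallel cytotoxicity by CellTiter-Glo luminescence; curves fitted for XC50.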

T1 sequence (P14902 whole entry): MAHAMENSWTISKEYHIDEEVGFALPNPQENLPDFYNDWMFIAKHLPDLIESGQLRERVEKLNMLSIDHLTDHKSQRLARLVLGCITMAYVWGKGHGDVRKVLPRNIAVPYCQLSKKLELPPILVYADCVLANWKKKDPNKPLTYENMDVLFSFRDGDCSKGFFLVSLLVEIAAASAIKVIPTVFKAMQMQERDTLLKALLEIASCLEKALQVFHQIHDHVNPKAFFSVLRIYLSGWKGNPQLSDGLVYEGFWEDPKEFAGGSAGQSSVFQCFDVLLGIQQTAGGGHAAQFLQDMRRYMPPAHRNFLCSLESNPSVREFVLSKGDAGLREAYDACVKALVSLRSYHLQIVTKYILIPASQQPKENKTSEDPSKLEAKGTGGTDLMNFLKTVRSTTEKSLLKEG

With `CC(C)CN(CC(C)C)c1ccc(C(C)CC(=O)O)cc1Nc1ccc(C(N)=O)cn1` (stereo not shown) [example 204, 3-{4-[bis(2-methylpropyl)amino]-3-[(5-carbamoylpyridin-2-yl)amino]phenyl}butanoic acid], the HELA_IDO1_TOX_PXC50 in data set [1] is on record as <5. In addition, the IC50 in data set [2] was 3.16 µM.

Take `Cc1nc(Cc2ccccc2)c(Nc2cc(C(C)CC(=O)O)ccc2N(CC(C)C)CC(C)C)s1` (stereo not shown) [example 146, 3-{3-[(4-benzyl-2-methyl-1,3-thiazol-5-yl)amino]-4-[bis(2-methylpropyl)amino]phenyl}butanoic acid]: the HELA_IDO1_TOX_PXC50 in data set [1] was <5. Besides, in data set [2], the IC50 was > 10 µM.

With `CC(C)CN(CC(C)C)c1ccc(C(C)CC(=O)O)cc1Nc1noc(-c2ccccc2)n1.O=C(O)C(F)(F)F` (stereo not shown) [example 122, 3-{4-[bis(2-methylpropyl)amino]-3-[(5-phenyl-1,2,4-oxadiazol-3-yl)amino]phenyl}butanoic acid], the HELA_IDO1_TOX_PXC50 in data set [1] was <4.3. The IC50 in data set [2] was 25.1 µM.

As for `CC(C)CN(c1ccc(-c2ccccc2C(=O)O)cc1Nc1nc(C(=O)O)ns1)C1CCCCC1` [example 275, 5-({2′-carboxy-4-[cyclohexyl(2-methylpropyl)amino]-[1,1′-biphenyl]-3-yl}amino)-1,2,4-thiadiazole-3-carboxylic acid], the HELA_IDO1_TOX_PXC50 in data set [1] is given as <5. In addition, the IC50 in data set [2] was 6.31 µM.

As to `CC(C)CN(CC(C)C)c1ccc(C(C)CC(=O)O)cc1Nc1ccc(NS(C)(=O)=O)cn1` (stereo not shown) [example 200, 3-{4-[bis(2-methylpropyl)amino]-3-[(5-methanesulfonamido-pyridin-2-yl)amino]phenyl}butanoic acid], in data set [1], the HELA_IDO1_TOX_PXC50 is <5. For the same compound, the IC50 in data set [2] was > 10 µM.

For `CC(C)CN(c1ccc(-c2ccccc2C(=O)O)cc1Nc1nc(C(F)(F)F)ns1)C1CCN(C(=O)OC(C)(C)C)CC1` [example 273, 4′-({1-[(tert-butoxy)carbonyl]piperidin-4-yl)-(2-methylpropyl)amino)-3′-{[3-(trifluoromethyl)-1,2,4-thiadiazol-5-yl]amino}-[1,1′-biphenyl]-2-carboxylic acid], the HELA_IDO1_TOX_PXC50 in data set [1] is recorded as <5. Also, the IC50 in data set [2] was 0.00794 µM.

Take `CC(C)CN(CC(C)C)c1ccc(C(C)CC(=O)O)cc1Nc1nnc(-c2ccccc2)o1.O=C(O)C(F)(F)F` (stereo not shown) [example 123, 3-{4-[bis(2-methylpropyl)amino]-3-[(5-phenyl-1,3,4-oxadiazol-2-yl)amino]phenyl}butanoic acid]: in data set [1], the HELA_IDO1_TOX_PXC50 was <4.3.

With `COCc1nnc(Nc2cc([C@H](C)CC(=O)O)ccc2N(CC(C)C)C2CCOCC2)s1` [example 216, (3R)-3-(3-{[5-(methoxymethyl)-1,3,4-thiadiazol-2-yl]amino}-4-[(2-methylpropyl)(oxan-4-yl)amino]phenyl)butanoic acid], the “PBMC TOX PXC50” value in data set [3] is recorded as <5. For the same compound, the IC50 in data set [2] is 0.0501 µM; in data set [4] it was 39.8 nM.

As to `CC(C)CN(CC(C)C)c1ccc([C@@H]2C[C@@H]2C(=O)O)cc1Nc1nc(C(F)(F)F)ns1` (single isomer, unassigned) [example 209], the “PBMC TOX PXC50” value in data set [3] is on record as <5. Further, the IC50 in data set [2] was 0.02 µM; in data set [4], 50.1 nM.

Turning to `CC(C)CN(c1ccc(/C=C/C(=O)O)cc1Nc1nc2ccccc2o1)C1CCCCC1` [example 137, (2E)-3-{3-[(1,3-benzoxazol-2-yl)amino]-4-[cyclohexyl(2-methylpropyl)amino]phenyl}prop-2-enoic acid], the HELA_IDO1_TOX_PXC50 in data set [1] was <5.

With `CC(C)CN(c1ccc(C(C)CC(=O)O)cc1NCc1c[nH]cn1)C1CCCCC1` (stereo not shown) [example 159, 3-{4-[cyclohexyl(2-methylpropyl)amino]-3-{[(1H-imidazol-4-yl)methyl]amino}phenyl} butanoic acid], the HELA_IDO1_TOX_PXC50 in data set [1] is <5. Further, the “PBMC TOX PXC50” value in data set [3] is <5. In data set [4], the IC50 is 5010 nM.

On to `CNC(=O)c1c[nH]c(Nc2cc([C@H](C)CC(=O)O)ccc2N(CC(C)C)C2CCOCC2)n1` [example 232, (3R)-3-(3-{[4-(methylcarbamoyl)-1H-imidazol-2-yl]amino}-4-[(2-methylpropyl)(oxan-4-yl)amino]phenyl)butanoic acid], for which, in data set [3], the “PBMC TOX PXC50” value is <5. The IC50 in data set [4] was 3160 nM.

`CO[C@H]1CC[C@H](N(CC(C)C)c2ccc([C@H](C)CC(=O)O)cc2Nc2ccc(Cl)cn2)CC1` [Example 55, (R)-3-(3-((5-chloropyridin-2-yl)amino)-4-(isobutyl((1r,4R)-4-methoxycyclohexyl)amino)phenyl)butanoic Acid]: the “PBMC TOX PXC50” value in data set [3] is <5. Also, the IC50 in data set [4] was 3.16 nM.

Take `CC(C)CN(CCCCCNC(=O)OC1CC/C=C/CCC1)c1ccc(C(C)CC(=O)O)cc1Nc1nc(C(F)(F)F)ns1` (stereo not shown) [example 259, 3-(4-{[5-({[(4E)-cyclooct-4-en-1-yloxy]carbonyl}amino)pentyl](2-methylpropyl)amino}-3-{[3-(trifluoromethyl)-1,2,4-thiadiazol-5-yl]amino}phenyl)butanoic acid]: in data set [3], the “PBMC TOX PXC50” value is <4.3. In addition, the IC50 in data set [4] was 100 nM.

With `CNC(=O)c1n[nH]c(Nc2cc([C@H](C)CC(=O)O)ccc2N(CC(C)C)C2CCOCC2)n1` [example 237, (3R)-3-(3-{[3-(methylcarbamoyl)-1H-1,2,4-triazol-5-yl]amino}-4-[(2-methylpropyl)(oxan-4-yl)amino]phenyl)butanoic acid], in data set [3], the “PBMC TOX PXC50” value is reported as <5. Further, in data set [4], the IC50 is 200 nM.

For the compound `CC(C)CN(c1ccc([C@H](C)CC(=O)O)cc1Nc1ccc(C#N)nc1)C1CCOCC1` [Example 13, (R)-3-(3-((6-cyanopyridin-3-yl)amino)-4-(isobutyl(tetrahydro-2H-pyran-4-yl)amino)phenyl)butanoic Acid], the “PBMC TOX PXC50” value in data set [3] was <5. In addition, in data set [4], the IC50 was 1.26 nM.

Turning to `CC(C)CN(CC(C)C)c1ccc(C(C)CC(=O)O)cc1Nc1nc(N2CCC2)ns1` (stereo not shown) [example 120, 3-(3-{[3-(azetidin-1-yl) 1,2,4-thiadiazol-5-yl]amino}-4-[bis(2-methylpropyl)amino]phenyl)butanoic acid], the HELA_IDO1_TOX_PXC50 in data set [1] is <4.3. For the same compound, in data set [3], the “PBMC TOX PXC50” value stood at 4.7.

With `CC(C)CN(c1ccc(C(C)N)cc1Nc1nc(C(F)(F)F)ns1)C1CCOCC1` (stereo not shown) [example 234, 4-(1-aminoethyl)-N1-(2-methylpropyl)-N1-(oxan-4-yl)-N2-[3-(trifluoromethyl)-1,2,4-thiadiazol-5-yl]benzene-1,2-diamine], the “PBMC TOX PXC50” value in data set [3] is on record as <5. In addition, the IC50 in data set [4] was 501 nM.

The values above are taken from US10899754B2, “Modulators of indoleamine 2,3-dioxygenase” (GLAXOSMITHKLINE INTELLECTUAL PROPERTY DEVELOPMENT LIMITED, priority 2016, dated 2021).
